Laboratory results: patent US8609711B2, “Crystalline N-{(1S)-2-amino-1-[(3-fluorophenyl)methyl]ethyl}-5-chloro-4-(4-chloro-1-methyl-1H-pyrazol-5-yl)-2-thiophenecarboxamic hydrochloride” (GlaxoSmithKline LLC, priority 2009, dated 2013)
Entries after “also recorded” stand apart in the source; their conditions may differ.

Experiment: Hygroscopicity, VTI instrument SGA 100
Settings: for weight increase (moisture): 25 °C; for hygroscopicity (in words): hydrochloride
Source text: There were 24 Relative Humidity steps used. The Relative Humidity at each step is as follows.

Structure (SMILES) | weight increase (moisture) (drying at 60 °C, 19 relative humidity steps between 0 and 90, max equilibrium time 300 min) | hygroscopicity (in words) | weight increase (moisture) (no drying, 24 relative humidity steps between 5 and 90, max equilibrium time 240 min)
Cl.Cn1ncc(Cl)c1-c1cc(C(=O)N[C@H](CN)Cc2cccc(F)c2)sc1Cl [Example 3] | more than 18 % w/w | hygroscopic; also recorded: high level of hygroscopicity | –
Cl.Cn1ncc(Cl)c1-c1cc(C(=O)N[C@H](CN)Cc2cccc(F)c2)sc1Cl [Compound A] | – | non-hygroscopic; also recorded: low level of hygroscopicity | less than 1 % w/w
